US7384478B2, “Apparatus and process for preparing crystalline particles” (Glaxo Group Limited, priority 2002, dated 2008)
Marks after values point to notes of the source that are not given here.

Assay: Particle sizing with the Malvern laser diffraction particle sizer
Format: physicochemical
Details: for Malvern size data D10 / Malvern size data D50 / Malvern size data D90: crystalline fluticasone propionate particles, average of 2 results except values marked **
Description: The drug substance (fluticasone propionate, FP) (1 wt) was dissolved in acetone (15-20 vols, according to experiment) by heating to 56° C. and then allowed to cool to between 25 and 35° C. A first peristaltic pump was connected to the said FP/acetone solution and a second peristaltic pump was connected to a water reservoir wherein the water was in the temperature range of about 3-30° C. Prior to starting the pumps the mixing chamber was filled with a solution of acetone and water (the ratio of each being the same as the relative pumping rates from the two reservoirs). By doing this, the relative concentrations of the water to acetone remained constant throughout the crystallisation. The temperature of the mixing chamber was maintained in the range about −10 to +30° C. by passing tempered heat transfer fluid through the vessel jacket. The FP/acetone solution inlet and water inlet were arranged coaxially or in parallel (as shown in FIGS. 1a/1b/2a/2b) and the tip of the ultrasound probe was positioned so that it is just above the inlets. Stirring with the aid of a non-grinding magnetic stirrer bar or overhead stirrer was initiated as is the ultrasound at intensity 2-4 W/cm^2 (with respect to the tip face area of the probe). A comparison experiment with the ultrasound probe in place but zero power was performed. Re-crystallisations were carried out from various mixtures of acetone and water (by altering the flow rates of each) as dictated by the parameters set out in the experimental design. Finally the pumps were started simultaneously. A suspension of the crystals in the re-crystallisation mixture was allowed to exit via the overflow directly on to a filter bed. The slurry is isolated and washed with water and dried in vacuo between about 20 to 50° C.
Comparison experiments were performed using the apparatus with diametrically opposite input feeds described in WO 00/38811 in which save for the input feed geometry and the specific parameters given in the table below, and the vessel dimensions given below, other parameters Were similar to those used for the experiments using the present invention.
Samples were sized using the Malvern laser diffraction particle sizer and the results analysed using multi-dimensional model fitting software (such as Design Expert 5).

Structure (SMILES): CCC(=O)O[C@]1(C(=O)SCF)[C@H](C)C[C@H]2[C@@H]3C[C@H](F)C4=CC(=O)C=C[C@]4(C)[C@@]3(F)[C@@H](O)C[C@@]21C [Run 2, fluticasone propionate]
- Malvern size data D10 (listed as 2): 0.52 micron
- Malvern size data D50 (listed as 2): 2.08 micron
- Malvern size data D90 (listed as 2): 5.10 micron

Structure (SMILES): CCC(=O)O[C@]1(C(=O)SCF)[C@H](C)C[C@H]2[C@@H]3C[C@H](F)C4=CC(=O)C=C[C@]4(C)[C@@]3(F)[C@@H](O)C[C@@]21C [Run 6, fluticasone propionate]
- Malvern size data D10 (listed as 6): 0.53 micron
- Malvern size data D50 (listed as 6): 2.06 micron
- Malvern size data D90 (listed as 6): 4.93 micron

Structure (SMILES): CCC(=O)O[C@]1(C(=O)SCF)[C@H](C)C[C@H]2[C@@H]3C[C@H](F)C4=CC(=O)C=C[C@]4(C)[C@@]3(F)[C@@H](O)C[C@@]21C [Run 1, fluticasone propionate]
- Malvern size data D10 (listed as 1): 0.60 micron
- Malvern size data D50 (listed as 1): 2.25 micron
- Malvern size data D90 (listed as 1): 6.29 micron

Structure (SMILES): CCC(=O)O[C@]1(C(=O)SCF)[C@H](C)C[C@H]2[C@@H]3C[C@H](F)C4=CC(=O)C=C[C@]4(C)[C@@]3(F)[C@@H](O)C[C@@]21C [Run 8, fluticasone propionate]
- Malvern size data D10 (listed as 8): 1.88 micron
- Malvern size data D50 (listed as 8): 5.13 micron
- Malvern size data D90 (listed as 8): 11.86 micron

Structure (SMILES): CCC(=O)O[C@]1(C(=O)SCF)[C@H](C)C[C@H]2[C@@H]3C[C@H](F)C4=CC(=O)C=C[C@]4(C)[C@@]3(F)[C@@H](O)C[C@@]21C [Run 3, fluticasone propionate]
- Malvern size data D10 (listed as 3): 0.47 micron
- Malvern size data D50 (listed as 3): 1.78 micron
- Malvern size data D90 (listed as 3): 4.39 micron

Structure (SMILES): CCC(=O)O[C@]1(C(=O)SCF)[C@H](C)C[C@H]2[C@@H]3C[C@H](F)C4=CC(=O)C=C[C@]4(C)[C@@]3(F)[C@@H](O)C[C@@]21C [standard micronised FP, fluticasone propionate]
- Malvern size data D10: 0.60 micron
- Malvern size data D50: 1.62 micron
- Malvern size data D90: 3.20 micron

Structure (SMILES): CCC(=O)O[C@]1(C(=O)SCF)[C@H](C)C[C@H]2[C@@H]3C[C@H](F)C4=CC(=O)C=C[C@]4(C)[C@@]3(F)[C@@H](O)C[C@@]21C [Run 7, fluticasone propionate]
- Malvern size data D10 (listed as 7): 1.15 micron
- Malvern size data D50 (listed as 7): 4.19 micron
- Malvern size data D90 (listed as 7): 10.00 micron

Structure (SMILES): CCC(=O)O[C@]1(C(=O)SCF)[C@H](C)C[C@H]2[C@@H]3C[C@H](F)C4=CC(=O)C=C[C@]4(C)[C@@]3(F)[C@@H](O)C[C@@]21C [Run 4, fluticasone propionate]
- Malvern size data D10 (listed as 4): 0.43** micron
- Malvern size data D50 (listed as 4): 1.51** micron
- Malvern size data D90 (listed as 4): 3.75** micron
- particle size distribution, comparison in words (versus micronised material or prior art configurations C and D): very good match

Structure (SMILES): CCC(=O)O[C@]1(C(=O)SCF)[C@H](C)C[C@H]2[C@@H]3C[C@H](F)C4=CC(=O)C=C[C@]4(C)[C@@]3(F)[C@@H](O)C[C@@]21C [Run 5, fluticasone propionate]
- Malvern size data D10 (listed as 5): 0.86 micron
- Malvern size data D50 (listed as 5): 2.98 micron
- Malvern size data D90 (listed as 5): 6.92 micron
